Reference: patent publication US20240043661A1, “CYCLODEXTRIN DIMERS AND USES THEREOF” (UNDERDOG PHARMACEUTICALS, INC., priority 2020, published 2024)

Legend:
[1] = In vitro solubility assay (turbidity assay) with cholesterol; type: physicochemical; conditions: 300 μM sterol, 3% ethanol in PBS, 30 mins at 37C, absorbance at 350 nm
Protocol: (§1) Greater affinity for one compound than another, e.g., greater affinity for 7KC than cholesterol, may be determined using a “turbidity test” performed on an aqueous suspension containing 3% ethanol, 300 uM sterol, in PBS and 1 mM of the CD to be tested. This single concentration of CD is used in order to standardize the test results. To perform the test, the samples are incubated for 30 mins at 37C, and then absorbance at 350 nm is measured, e.g., using a spectrophotometer plate reader. Relative turbidity is determined by dividing the measured turbidity in the presence of the CD to the baseline turbidity without the CD. A given CD has greater affinity for 7KC than cholesterol if the relative turbidity of the 7KC suspension is lower than the relative turbidity of the cholesterol solution.
(§2) Sterol stock solutions (including cholesterol and 7KC) were suspended in 100% ethanol. Final concentration of suspensions: 3% ethanol, 300 μM sterol, in PBS with various concentrations of CDs.

[2] = In vitro solubility assay (turbidity assay) with 7KC; type: physicochemical; conditions: 300 μM sterol, 3% ethanol in PBS, 30 mins at 37C, absorbance at 350 nm
Protocol: as §1, §2

solubilization / binding of cholesterol (turbidity) [1]: low affinity for 7KC and cholesterol | solubilization / binding of 7KC (turbidity) [2]: low affinity for 7KC and cholesterol
Structure (SMILES): OC[C@H]1O[C@@H]2O[C@H]3[C@H](O)[C@@H](O)[C@@H](O[C@H]4[C@H](O)[C@@H](O)[C@@H](O[C@H]5[C@H](O)[C@@H](O)[C@@H](O[C@H]6[C@H](O)[C@@H](O)[C@@H](O[C@H]7[C@H](O)[C@@H](O)[C@@H](O[C@H]1[C@H](O)[C@H]2O)O[C@@H]7CO)O[C@@H]6CO)O[C@@H]5CO)O[C@@H]4CO)O[C@@H]3CO [native αCD]
specificity for 7KC over cholesterol (turbidity) [2]: no specificity
